From US7488820B2, “Naphthofluorescein-based metal sensors, and methods of making and using the same” (Massachusetts Institute of Technology, priority 2004, dated 2009)

Assays:
[1] = Ratiometric fluorescence responses (F624/F528) of MS4 and MS5 to various metal ions; conditions: 5 μM probe, 50 equiv metal ion, 50 mM HEPES, 100 mM KCl, pH 8, excitation 499 nm
Protocol: FIG. 9 depicts the ratiometric fluorescence spectroscopic responses of MS4 to various metal ions. Bars represent the ratio of fluorescence intensities collected at 624 and 528 nm (F624/F528). All spectra were acquired in 50 mM HEPES, 100 mM KCl, pH 8. Grey bars represent the addition of an excess of the appropriate metal ion (50 equiv metal ion of interest) to a 5 μM solution of MS4. Dark grey bars represent the subsequent addition of 50 equiv Hg^2+ to the solution. Excitation was provided at 499 nm.
FIG. 10 depicts the ratiometric fluorescence spectroscopic responses of MS5 to various metal ions. Bars represent the ratio of fluorescence intensities collected at 624 and 528 nm (F624/F528). All spectra were acquired in 50 mM HEPES, 100 mM KCl, pH 8. Grey bars represent the addition of an excess of the appropriate metal ion (50 equiv metal ion of interest) to a 5 μM solution of MS5. Dark grey bars represent the subsequent addition of 50 equiv Hg^2+ to the solution. Excitation was provided at 499 nm.
Millipore water was used to prepare all aqueous solutions. […] Fluorescence spectra were collected by using a Photon Technology International (Lawrenceville, N.J.) Quanta Master 4L-format scanning spectrofluorimeter equipped with an LPS-220B 75-W xenon lamp and power supply, A-1010B lamp housing with integrated igniter, switchable 814 photon-counting/analog PMT detector, and a MD-5020 motor driver. […]

[2] = system: COS-7 cells; experiment: Cell membrane permeability and ratio confocal fluorescence imaging of intracellular Zn2+ in live COS-7 cells; type: cell-based
Protocol: FIG. 5. Ratio confocal fluorescence imaging in COS-7 cells using the Zeiss LSM510 META system operating in the lambda mode. Fluorescence was collected in 10.7 nm optical windows centered at 612 and 526 nm. Pseudocolor figures depict the ratio of fluorescence intensities at these two emission wavelengths. (a) Ratio confocal fluorescence images of live COS-7 cells labeled with ZNP1. Incubation of cells with 20 μM ZNP1-Ac for 20 min at 37° C. (left), ZNP1-stained cells loaded with 50 μM Zn(pyrithione)2 for 5 min (middle), and reversal of the cytosolic ratio enhancements with 100 μM TPEN (right). Confocal images were taken from a middle optical section (vertical dimension) of the cell samples. (b) Confocal fluorescence images of NO-triggered release of endogenous Zn^2+ in live COS-7 cells. Incubation of cells with 20 μM ZNP1-Ac for 20 min at 37° C. (left), ZNP1-stained cells treated with 10 mM SNOC (S-nitrosocysteine, middle) for 1 hr, and reversal of the observed ratio increases with 2 mM TPEN (right). Confocal images were taken from a middle optical section (vertical dimension) of the cell samples.
We therefore prepared the non-fluorescent diacetate derivative of ZNP1, ZNP1-Ac, anticipating that this more lipophilic derivative would permeate the cell and be transformed to fluorescent ZNP1 by the action of intracellular esterases. […] Ratiometric fluorescence imaging of ZNP1-stained cells is readily performed by using the META detection system operating in lambda mode with optical windows centered at 612 and 526 nm. […] Prompt increases in the ratio of cytosolic fluorescence intensities collected at 612 and 526 nm are observed upon the addition of exogenous Zn^2+ (50 μM) carried by the ionophore pyrithione (2-mercaptopyridine N-oxide, FIG. 5a). […]
The successful use of ZNP1 for monitoring changes in intracellular Zn^2+ concentrations using ratiometric fluorescence imaging led us to apply this probe for detecting endogenous pools of intracellular Zn^2+. […]

[3] = Metal ion selectivity of the ratiometric fluorescence response (F624/F528) of ZNP1
Protocol: FIG. 4. Ratiometric fluorescence spectroscopic responses of ZNP1 to various metal ions. Bars represent the ratio of fluorescence intensities collected at 624 and 528 nm (F624/F528). All spectra were acquired in 50 mM HEPES, 100 mM KCl, pH 7.5. White bars represent the addition of an excess of the appropriate metal ion (2 mM for Ca^2+ and Mg^2+, 100 μM for all other metal ions) to a 10 μM solution of ZNP1. Grey bars represent the subsequent addition of 100 μM Zn^2+ to the solution. Excitation was provided at 499 nm.
The emission profiles of apo or Zn^2+-bound ZNP1 are unperturbed in the presence of 2 mM Ca^2+ or Mg^2+, indicating a degree of selectivity for Zn^2+ over these biologically competing alkaline earth cations.
Millipore water was used to prepare all aqueous solutions, which were passed through 0.2 um cellulose filters prior to use. All spectroscopic measurements were performed under simulated physiological conditions using buffer solutions containing 50 mM HEPES, 4-(2-hydroxyethyl)-1-piperazineethanesulfonic acid, and 100 mM KCl adjusted to pH 7.5. A glass electrode (Orion), calibrated prior to each use, was used to determine solution pH. Solutions of Zn^2+ were prepared from 100 mM stock solutions of ZnCl2 in water. Absorption spectra were recorded on a Hewlett-Packard 8453A diode array spectrophotometer, and fluorescence spectra on a Photon Technology International (PTI) Quanta Master 4 L-format scanning spectrofluorimeter equipped with an LPS-220B 75-watt xenon lamp and power supply, A-1010B lamp housing with integrated igniter, switchable 814 photon-counting/analog photomultiplier detection unit, and MD-5020 motor driver. Samples for absorption and emission measurements were contained in 1 cm×1 cm quartz cuvettes (3.5 mL volume, Stama). The experiments for measuring quantum yields, apparent dissociation constants (Kd), and metal ion selectivities were performed by using standard protocols. Quantum yields were determined by reference to fluorescein in 0.1 N NaOH (Φ=0.95). Confocal fluorescence imaging experiments were performed with a Zeiss LSM510 laser scanning microscopy system containing an Axiovert 200M inverted fluorescence microscope. The microscope was equipped with an argon ion laser (488-nm excitation) and objective lenses (100×), and scanning was performed using the META detection system operating in lambda mode (Zeiss) with 10.7 nm collection windows. During imaging measurements, cell samples were kept on the microscope stage in a CTI-3700 incubator at 37° C. under 5% CO2. Additions of Zn^2+ as the pyrithione complex (2-mercaptopyridine N-oxide), TPEN [N,N,N′,N′-tetra(2-picolyl)ethylenediamine], or SNOC (S-nitrosocysteine) to cell samples were performed directly on the microscope stage by bath application to the media. […]

[4] = Fluorescence spectroscopy: quantum yield and ratiometric emission response to Zn2+; type: physicochemical; conditions: pH 7.5
Protocol: FIG. 3. Ratiometric fluorescence spectroscopic response of 20 μM ZNP1 to buffered Zn^2+ solutions. Spectra were acquired in 50 mM HEPES, 100 mM KCl, pH 7.5. Excitation was provided at 499 nm. A standard EDTA/Ca^2+/Zn^2+ dual-metal buffer system was employed to deliver controlled concentrations of buffered free Zn^2+. The spectra shown are for free Zn^2+ buffered at 0, 0.17, 0.42, 0.79, 1.3, 2.1, 3.4, 5.6, and 10.2 nM, respectively.
Quantum yield, Φ, may be obtained by comparison of the integrated area of the corrected emission spectrum of the sample with that of a reference solution. A preferred reference solution is a solution of fluorescein in 0.1 N NaOH, quantum efficiency 0.95. The concentration of the reference is adjusted to match the absorbance, Abs, of the test sample. The quantum yields may be calculated using the following equation:
ZNP1 was evaluated at physiological ionic strength and pH [50 mM HEPES (4-(2-hydroxyethyl)-1-piperazineethanesulfonic acid), 100 mM KCl, pH 7.5] in the presence of EDTA (ethylenediaminetetraacetic acid) to scavenge adventitious metal ions. […] The quantum yield for apo ZNP1 is 0.02.
The observed changes in absorption and emission spectra occur up to a 1:1 [Zn^2+][ZNP1] ratio, indicating the likely formation of a 1:1 complex. Upon addition of Zn^2+, the visible absorption profile of the ZNP1 chemosensor red shifts to a single broad peak centered at 547 nm (ε=2.2×10^4 M^−1cm^−1). Excitation at 499 nm produces a fluorescence spectrum featuring one dominant emission band centered at 624 nm with a minor component centered at 545 nm (FIG. 3). The quantum yield for Zn^2+-ZNP1 complex is 0.05. […] The ratio of naphthofluorescein- to fluorescein-like emission intensities (λ624/λ528) upon 499-nm excitation varies from 0.4 in the absence of Zn^2+ to 7.1 in the presence of Zn^2+, an 18-fold increase.
Millipore water was used to prepare all aqueous solutions, which were passed through 0.2 um cellulose filters prior to use. All spectroscopic measurements were performed under simulated physiological conditions using buffer solutions containing 50 mM HEPES, 4-(2-hydroxyethyl)-1-piperazineethanesulfonic acid, and 100 mM KCl adjusted to pH 7.5. A glass electrode (Orion), calibrated prior to each use, was used to determine solution pH. Solutions of Zn^2+ were prepared from 100 mM stock solutions of ZnCl2 in water. Absorption spectra were recorded on a Hewlett-Packard 8453A diode array spectrophotometer, and fluorescence spectra on a Photon Technology International (PTI) Quanta Master 4 L-format scanning spectrofluorimeter equipped with an LPS-220B 75-watt xenon lamp and power supply, A-1010B lamp housing with integrated igniter, switchable 814 photon-counting/analog photomultiplier detection unit, and MD-5020 motor driver. Samples for absorption and emission measurements were contained in 1 cm×1 cm quartz cuvettes (3.5 mL volume, Stama). The experiments for measuring quantum yields, apparent dissociation constants (Kd), and metal ion selectivities were performed by using standard protocols. Quantum yields were determined by reference to fluorescein in 0.1 N NaOH (Φ=0.95). Confocal fluorescence imaging experiments were performed with a Zeiss LSM510 laser scanning microscopy system containing an Axiovert 200M inverted fluorescence microscope. The microscope was equipped with an argon ion laser (488-nm excitation) and objective lenses (100×), and scanning was performed using the META detection system operating in lambda mode (Zeiss) with 10.7 nm collection windows. During imaging measurements, cell samples were kept on the microscope stage in a CTI-3700 incubator at 37° C. under 5% CO2. Additions of Zn^2+ as the pyrithione complex (2-mercaptopyridine N-oxide), TPEN [N,N,N′,N′-tetra(2-picolyl)ethylenediamine], or SNOC (S-nitrosocysteine) to cell samples were performed directly on the microscope stage by bath application to the media. SNOC was prepared immediately before use.

For CCSCCN(Cc1ccccn1)Cc1ccccc1NCc1c2oc3c(ccc4cc(O)ccc43)c(-c3ccccc3C(=O)O)c-2ccc1=O [MS4], which “selectivity for Hg2+ over other metal ions (in words)” value [1] is on record?
Its value is “selectivity for Hg^2+ over metal ions such as Na^+, Ca^2+, and Mg^2+”.

For CCSCCN(CCSCC)Cc1ccccc1NCc1c2oc3c(ccc4cc(O)ccc43)c(-c3ccccc3C(=O)O)c-2ccc1=O [MS5, 2-{11-[(2-{[Bis-(2-ethylsulfanylethyl)amino]methyl}phenylamino)methyl]-3-hydroxy-10-oxo-10H-benzo[c]xanthen-7-yl}benzoic acid], which “selectivity for Hg2+ over other metal ions (in words)” value [1] is on record?
The value was “selectivity for Hg^2+ over metal ions such as Na^+, Ca^2+, and Mg^2+”.

Which “permeability to cell membranes” value ([2]; initial experiments) does the source give for O=C(O)c1ccccc1-c1c2ccc(=O)c(CNc3ccccc3CN(Cc3ccccn3)Cc3ccccn3)c-2oc2c1ccc1cc(O)ccc12 [ZNP1, 4-[12-{Bis(2-pyridylmethyl)aminomethyl}-N-methylaniline]-3,10-dibenzoate-spiro[7H-benzo[c]xanthen-7,1′(3′H)-isobenzofuran]-3′-one] here?
Its value is “impermeable to cell membranes”.

And the “monitoring of intracellular [Zn2+] changes (612/526 nm ratio)” value ([2]; stained COS-7 cells, 50 μM Zn2+/pyrithione, then 100 μM TPEN)?
The value was “can monitor changes in intracellular [Zn^2+] reversibly”.

And the “detection of NO-triggered release of endogenous Zn2+ (612/526 nm ratio)” value ([2]; stained COS-7 cells, 10 mM S-nitrosocysteine, reversed by 2 mM TPEN)?
The value was “establishes a rise in intracellular [Zn^2+]”.

What about the “selectivity for Zn2+ over other metal ions (in words)” value [3] of the same compound?
The value was “selectivity for Zn^2+ over metal ions such as Na^+, K^+, Ca^2+, and Mg^2+”.

And the “emission profiles of apo or Zn2+-bound probe in the presence of Ca2+ or Mg2+” value ([3]; 10 μM probe, 2 mM Ca2+ or Mg2+, pH 7.5)?
Its value is “unperturbed”.

What about the “ratiometric response to subsequent addition of 100 μM Zn2+ in the presence of first-row transition metal ions” value ([3]; 10 μM probe, Cu2+, Ni2+, Co2+, Fe2+, Mn2+ 100 μM, then 100 μM Zn2+) of the same compound?
The value was “only the sample containing Mn^2+ affords a ratiometric fluorescence response”.

And the “change in emission ratio with Cu2+, Ni2+, Co2+, Fe2+, Mn2+” value ([3]; 10 μM probe, metal ions at 10-fold excess over probe)?
Its value is “no discernable change in emission ratios”.

And the “time of fluorescence response to buffered Zn2+” value ([4]; 20 μM probe, free Zn2+ 0-10.2 nM)?
Its value is “immediately upon mixing”.

And the “increase of λ624/λ528 emission ratio on Zn2+ binding” value ([4]; 499-nm excitation)?
The value was 18 fold.

And the “ratio of emission intensities λ624/λ528 in the absence of Zn2+” value ([4]; 499-nm excitation)?
The value was 0.4.

What about the “ratio of emission intensities λ624/λ528 in the presence of Zn2+” value ([4]; 499-nm excitation) of the same compound?
The value was 7.1.

And the “quantum yield, Zn2+ complex” value ([4]; Zn2+-bound, 50 mM HEPES, 100 mM KCl)?
Its value is 0.05.

What about the “quantum yield, apo” value ([4]; no Zn2+, EDTA present, 50 mM HEPES, 100 mM KCl, reference fluorescein in 0.1 N NaOH) of the same compound?
The value was 0.02.
